# Measurements from ChEMBL document CHEMBL1148240, “3-hydroxy-quinazoline-2,4-dione as a useful scaffold to obtain selective Gly/NMDA and AMPA receptor antagonists” (Bioorg Med Chem Lett, 2004).
# What was measured:
# [1] = biological target: Glutamate receptor ionotropic, kainate; assay: Ability of compound to displace [3H]- kainate from ionotropic glutamate receptor kainate in rat cortical membranes; assay type: cell membranes, Membrane
# [2] = Ability of compound to inhibit the binding of the channel blocking agent [3H](+)-MK-801 in rat cortical membranes; assay type: cell membranes, Membrane
# [3] = biological target: T1, Glutamate receptor ionotropic, AMPA (Rattus norvegicus, UniProt P19490+P19491+P19492+P19493); assay: Ability of compound to displace [3H]AMPA from Ionotropic glutamate receptor AMPA in rat cerebral cortex synaptic membranes; assay type: cell membranes, Membrane
# [4] = biological target: T1, Glutamate receptor ionotropic, AMPA
# Description: Inhibitory concentration of compound for depolarization induced by 5 uM S-AMPA in mouse cortical wedge preparation
# [5] = biological target: Glutamate NMDA receptor; assay: Inhibitory concentration of compound for depolarization induced by 5 uM NMDA in mouse cortical wedge preparation; assay type: protein-complex assay
# [6] = biological target: Glutamate receptor ionotropic, NMDA 1 (Rattus norvegicus, UniProt P35439); assay: Ability of compound to displace [3H]glycine from N-methyl-D-aspartate glutamate receptor 1 from in cerebral cortex synaptic membranes; assay type: cell membranes
# [7] = species: Rattus norvegicus; assay: Ability of compound to inhibit the binding of the channel blocking agent [3H](+)-MK-801 in rat cortical membranes at 100 uM concentration; assay type: cell membranes; details: Membrane
# [8] = biological target: Glutamate NMDA receptor
SMILES,IC50 [1] [µM],IC50 [2] [µM],Ki [3] [µM],IC50 [4] [µM],IC50 [5] [µM],Ki [6] [µM],Ki [8] [µM],inhibition [7] [%]
O=c1[nH]c2cc(Cl)c([N+](=O)[O-])cc2c(=O)n1O,19.2,1.7,1.3,29,36,1.1,,
O=c1[nH]c2cc(Cl)ccc2c(=O)n1O,140,4.8,11.6,,,0.24,,
O=c1[nH]c2cc(Cl)cc(Cl)c2c(=O)n1-c1ccccc1,,,,,,23,,
O=c1[nH]c2cc(Cl)c(-n3cnnc3)cc2c(=O)n1O,7,,0.25,4.6,84,> 100,,29
O=C(O)c1cc(O)c2c(Cl)cc(Cl)cc2n1,,,,,,,4.7,

# Second part, led by results:
IC50 [1] [µM],IC50 [2] [µM],Ki [3] [µM],IC50 [4] [µM],IC50 [5] [µM],Ki [6] [µM],Ki [8] [µM],SMILES,inhibition [7] [%]
70,89,9.7,,,10.6,,Nc1cc2c(=O)n(O)c(=O)[nH]c2cc1Cl,
52,0.75,9.8,33,42,0.2,,O=c1[nH]c2cc(Cl)cc(Cl)c2c(=O)n1O,
68,0.43,12.5,,,0.3,,O=c1[nH]c2cc(Cl)c(Cl)cc2c(=O)n1O,
